Laboratory results reported in US7687623B2, “Pyrrolobenzodiazepines and heterocyclic carboxamide derivatives as follicle stimulating hormone receptor (FSH-R) antagonists” (Wyeth LLC, priority 2005, dated 2010).

What was measured:
human FSH receptor = biological target: T1, human FSH receptor (Homo sapiens, UniProt P23945); assay: FSH receptor-dependent CRE-luciferase reporter gene assay (CHO FSH-R 6CRE-Luc, 1D7 cells); type: cell-based; settings: for IC50: dose-response format in presence of EC50 of purified human FSH
T1 construct: host or cells: CHO-K1 (CHO FSH-R 6CRE-Luc, 1D7 cells)
T1 sequence (P23945 18-695): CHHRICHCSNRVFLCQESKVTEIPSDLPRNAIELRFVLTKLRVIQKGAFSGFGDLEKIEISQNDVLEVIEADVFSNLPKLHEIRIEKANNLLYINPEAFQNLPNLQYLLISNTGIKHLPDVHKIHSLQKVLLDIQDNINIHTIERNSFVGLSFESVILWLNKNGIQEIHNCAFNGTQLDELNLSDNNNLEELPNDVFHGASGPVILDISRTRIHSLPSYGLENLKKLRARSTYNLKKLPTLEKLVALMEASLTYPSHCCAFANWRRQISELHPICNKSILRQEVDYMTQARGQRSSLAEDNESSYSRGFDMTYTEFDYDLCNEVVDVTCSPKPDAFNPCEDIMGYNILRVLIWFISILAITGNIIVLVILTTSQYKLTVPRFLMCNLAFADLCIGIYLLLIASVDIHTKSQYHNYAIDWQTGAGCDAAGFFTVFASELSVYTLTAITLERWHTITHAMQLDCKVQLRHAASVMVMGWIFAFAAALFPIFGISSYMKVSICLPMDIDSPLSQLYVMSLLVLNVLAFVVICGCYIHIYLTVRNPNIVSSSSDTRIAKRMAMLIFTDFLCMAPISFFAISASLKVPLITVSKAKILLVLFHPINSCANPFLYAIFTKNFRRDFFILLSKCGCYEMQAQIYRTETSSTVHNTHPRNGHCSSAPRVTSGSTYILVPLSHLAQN
Method: This procedure was used to identify and determine the relative potencies of human FSH receptor antagonists using a Chinese hamster ovarian cell line that stably produces the human FSH receptor and a luciferase reporter gene regulated by cAMP response elements.
The compounds were subsequently diluted in DMSO to working dilutions of 1 and 20 or 30 mM for 2-dose testing format and 1 μM-10 mM for dose-response format. The DMSO dilutions were diluted 500-fold in sterile growth medium [D-MEM/F-12 (GIBCO/BRL; Grand Island N.Y.) containing 15 mM HEPES, 2 mM 1-glutamine, pyridoxine hydrochloride, phenol red and 5% FetalClone II (HyClone Laboratories, Inc; Logan, Utah), 0.2% DMSO, 100 units penicillin G/ml, and 100 μg streptomycin sulfate/ml (GIBCO/BRL)]. The concentration of the vehicle in each of the compound dilutions was the same. POSITIVE CONTROLS: Purified human FSH (>98%) was purchased from Cortex Biochem, Inc. (San Leandro, Calif.) and a known FSH-R thiazolidinone antagonist was obtained from the Wyeth Research compound repository. Preparation of Cells
The CHO FSH-R 6CRE-Luc cells (1D7 cells) were obtained from Affymax (Palo Alto, Calif.). These Chinese hamster ovary cells (CHO-K1) were genetically engineered to stably express the recombinant human FSH receptor gene and a luciferase reporter gene under the regulation of 6 copies of a cAMP response element. The cells were plated one day prior to treatment into 96-well white opaque plates at a density of 50,000 cells/100 μl/well in growth medium. On the day of treatment, the growth medium was removed from the wells by aspiration and 50 µl of fresh growth medium was added to each well. The cells were incubated at 37° C. in a humidified incubator with 5% CO2/95% air.
The treated cells were incubated for 4 hours at 37° C. in a humidified incubator with 5% CO2/95% air. At the end of the incubation period, luciferase activity was measured by chemiluminescence using a commercially available kit (LucScreen, Tropix, Inc., Bedford, Mass.) according to the manufacturer's specifications, except that Buffer 1 and Buffer 2 were mixed together in equal proportion prior to the addition of 100 μl of the combined reagents to each well. Chemiluminescence was detected using a luminometer (EG & G Berthold Microlumat LB 96 P, Wallac, Gaithersburg, Md.) with chemiluminescence measured for 1 sec/well.
Background luminescence was measured for each well prior to the addition of the LucScreen reagent.
In the 96-well 2-dose format, each compound was tested in duplicate at each dose. […] One plate was used to test a maximum of 22 compounds.
The EC50 of purified human FSH alone was tested in triplicate with each test compound. The doses chosen to test each compound were extrapolated from the initial 2-dose screening process. Along with the test compounds, purified human FSH was also tested in a dose response (0.03, 0.1, 0.3, 1, 3, 10, and 30 ng/ml) for a positive control and quality control. One plate was used for 3 test compounds and the FSH positive control.
Luciferase activity is expressed as relative light units/sec/well. Luciferase activity in antagonist was compared to the appropriate negative and positive controls. For 2-dose testing, results are reported as luciferase activity and are expressed as % inhibition of the response obtained from the EC50 of FSH. For dose-response testing, results are reported as IC50 values. Data were analyzed statistically by one-way analysis of variance with appropriate weighting and transformation and relevant paired test as determined by Biometrics (Wyeth Research, Princeton, N.J.). IC50 values were calculated using the Stat/Excel program developed by Biometrics with appropriate weighting and transformation.

hFSH-R = biological target: T2, hFSH-R (Homo sapiens, UniProt P23945); assay: cAMP accumulation (RIA) in CHO-3D2 cells (hFSH-R), hFSH-induced; type: cell-based; settings: for Emax: read-out: cAMP % Efficacy
T2 construct: expressed in transfected cells; host or cells: CHO-3D2 cells
T2 sequence (P23945 18-695): T1 sequence (P23945 18-695)
Method: COMPOUND VEHICLE: Stock compounds were solubilized in 100% DMSO (Sigma Chemical Co.) at a concentration of 30 mM. The compounds were subsequently diluted in sterile assay medium consisting of Opti-MEM® I (Life Technologies) with 0.1% (w/v) BSA (Sigma), prior to use in the bio-assay. The final concentration of DMSO in the assay is 0.1%.
Plated cells are then incubated at 37° C. in a humidified 5% CO2/95% air, atmosphere.
On the day of the assay, cells were washed three times with 100 μl/well of assay medium consisting of Opti-MEM® I (Life Technologies) with 0.1% (w/v) BSA (Sigma). Medium was removed and 100 μl of assay medium was added to each well. Plates were incubated for an additional 30 minutes at 37° C. […] Reactions were terminated by the addition of 50 μl of 0.2N hydrochloric acid to each well and cAMP-accumulation was measured by radioimmunoassay (RIA) using a commercially available kit (Amersham).
All test compounds were evaluated in a dose-response paradigm ranging from about 0.01 to about 30 μM. Controls and test compounds were evaluated in quadruplicate in a 96-well format.
Along with the test compounds, FSH was also run as a positive control in the agonist mode using concentrations ranging from about 0.1-1000 ng/ml.
Data were analyzed by one-way analysis of variance and significant differences between treatments and control determined by Least Significant Difference test.
Test compounds were compared to the effect of purified human FSH.

SMILES	IC50 (human FSH receptor) [µM]	IC50 (hFSH-R) [µM]	Emax (hFSH-R) [%]	melting point [°C]	inhibition at 30 µM (human FSH receptor; 2-dose format, test concentration 30 μM in parentheses, % inhibition of the response to EC50 of FSH) [%]
COc1ccccc1-c1ccc(C(=O)N2Cc3ccc(C(=O)NCc4cccn4C)n3Cc3ccccc32)cc1 [Example 2, 10-[(2′-Methoxy-1,1′-biphenyl-4-yl)carbonyl]-N-[(1-methyl-1H-pyrrol-2-yl)methyl]-10,11-dihydro-5H-pyrrolo[2,1-c][1,4]benzodiazepine-3-carboxamide]	42.6	1.2	79	148 to 150	–
Cc1cc(CNC(=O)c2ccc3n2Cc2ccccc2N(C(=O)c2ccc(-c4c(C)cccc4C)c(C)c2)C3)no1 [Example 4, N-[(5-Methylisoxazol-3-yl)methyl]-10-[(2,2′,6′-trimethyl-1,1′-biphenyl-4-yl)carbonyl]-10,11-dihydro-5H-pyrrolo[2,1-c][1,4]benzodiazepine-3-carboxamide]	> 30	–	–	233 to 234	–
COc1ccccc1-c1ccc(C(=O)N2Cc3ccc(C(=O)NCc4cc(C)on4)n3Cc3ccccc32)cc1 [Example 5, 10-[(2′-Methoxy-1,1′-biphenyl-4-yl)carbonyl]-N-[(5-methylisoxazol-3-yl)methyl]-10,11-dihydro-5H-pyrrolo[2,1-c][1,4]benzodiazepine-3-carboxamide]	10.2	0.6	96	111 to 113	–
COc1ccccc1-c1ccc(C(=O)N2Cc3ccc(C(=O)NCc4cc(C)oc4C)n3Cc3ccccc32)cc1 [Example 6, N-[(2,5-Dimethyl-3-furyl)methyl]-10-[(2′-methoxy-1,1′-biphenyl-4-yl)carbonyl]-10,11-dihydro-5H-pyrrolo[2,1-c][1,4]benzodiazepine-3-carboxamide]	3.3	0.3	81	–	–
COc1ccccc1-c1ccc(C(=O)N2Cc3ccc(C(=O)NCC4CN(Cc5ccccc5)CCO4)n3Cc3ccccc32)cc1 (centres unmarked) [Example 7, N-[(4-Benzylmorpholin-2-yl)methyl]-10-[(2′-methoxy-1,1′-biphenyl-4-yl)carbonyl]-10,11-dihydro-5H-pyrrolo[2,1-c][1,4]benzodiazepine-3-carboxamide]	–	–	–	180 to 182	26
Cc1cc(C(=O)N2Cc3ccc(C(=O)NCc4cccn4C)n3Cc3ccccc32)ccc1-c1c(C)cccc1C [Example 8, N-[(1-Methyl-1H-pyrrol-2-yl)methyl]-10-[(2,2′,6′-trimethyl-1,1′-biphenyl-4-yl)carbonyl]-10,11-dihydro-5H-pyrrolo[2,1-c][1,4]benzodiazepine-3-carboxamide]	> 30	–	–	222 to 224	–
COc1ccc(-c2nc(CNC(=O)c3ccc4n3Cc3ccccc3N(C(=O)c3ccc(-c5ccccc5C)c(C)c3)C4)no2)cc1 [Example 10, 10-[(2,2′-Dimethyl-1,1′-biphenyl-4-yl)carbonyl]-N-{[5-(4-methoxyphenyl)-1,2,4-oxadiazol-3-yl]methyl}-10,11-dihydro-5H-pyrrolo[2,1-c][1,4]benzodiazepine-3-carboxamide]	–	–	–	133 to 135	–
Cc1ccccc1-c1ccc(C(=O)N2Cc3ccc(C(=O)NCc4csc(-c5ccc(Cl)cc5)n4)n3Cc3ccccc32)cc1C [Example 11, N-{[2-(4-Chlorophenyl)-1,3-thiazol-4-yl]methyl}-10-[(2,2′-dimethyl-1,1′-biphenyl-4-yl)carbonyl]-10,11-dihydro-5H-pyrrolo[2,1-c][1,4]benzodiazepine-3-carboxamide]	–	–	–	198 to 201	–
Cc1ccccc1-c1ccc(C(=O)N2Cc3ccc(C(=O)NCC4CCCNC4)n3Cc3ccccc32)cc1C (centres unmarked) [Example 12, 10-[(2,2′-Dimethyl-1,1′-biphenyl-4-yl)carbonyl]-N-(piperidin-3-ylmethyl)-10,11-dihydro-5H-pyrrolo[2,1-c][1,4]benzodiazepine-3-carboxamide]	> 30	–	–	–	–
